Values of other authors in PubChem BioAssay AID1259409 (Chemical Carcinogenesis Research Information System (CCRIS), 2018).
“And” between values parts separate entries of the source, which are not always exact repeats. Equal values may be shown once.

Test system: rodent chemically induced tumor inhibition, incidence and multiplicity
Assay: CCRIS tumor inhibitor studies
Conditions: Promoter: NONE USED

SMILES: O=c1cc(-c2ccccc2)oc2ccc3ccccc3c12
- tumour outcome (control, treated, inhibition, significance) (Carcinogen: N-NITROSOETHYLUREA, 759-73-9, Dose [Inhibitor]: 0, 150 MG/KG IN OLIVE OIL 48 HR PRIOR TO CARCINOGEN DOSE (STUDY DURATION: 8 WK), Route [Inhibitor]: INTRAPERITONEAL, Species: MOUSE, Strain/Sex: DBA/FEMALE, Target Tissue: Type of Lesion: LUNG: TUMOR, Dose [Carcinogen]: 8 MG/KG IN 0.22 MOLAR SODIUM CITRATE BUFFER 1/WK FOR 4 WK): 12/34 (35%), 15/34 (44%), -26%, not calculated
- tumour outcome (control, treated, inhibition, significance) (Carcinogen: N-NITROSOETHYLUREA, 759-73-9, Dose [Inhibitor]: 0, 150 MG/KG IN OLIVE OIL 48 HR PRIOR TO CARCINOGEN DOSE (STUDY DURATION: 8 WK), Route [Inhibitor]: INTRAPERITONEAL, Species: MOUSE, Strain/Sex: SWISS/FEMALE, Target Tissue: Type of Lesion: LUNG: TUMOR, Dose [Carcinogen]: 8 MG/KG IN 0.22 MOLAR SODIUM CITRATE BUFFER 1/WK FOR 4 WK): 26/27 (96%), 12/16 (75%), 22%, not calculated
- tumour outcome (control, treated, inhibition, significance) (Dose [Inhibitor]: 0, 0.015% IN DIET FOR 9 WK BEGINNING 1 WK PRIOR TO AND CONTINUING DURING CARCINOGEN TREATMENT (STUDY DURATION: 42 WK), Route [Inhibitor]: ORAL, Species: RAT, Strain/Sex: F344/MALE, Target Tissue: Type of Lesion: LIVER: HEPATOMA, Dose [Carcinogen]: 25 UG 5 D/WK FOR 8 WK): 15/15 (100%), 4/16 (25%), 75%, not calculated and 15/15 (100%), 5/15 (31%), 69%, not calculated
- tumour outcome (control, treated, inhibition, significance) (Dose [Inhibitor]: 0, 50 PPM IN DIET BEGINNING 8 WK PRIOR TO CARCINOGEN AND CONTINUING FOR 6 WK POST CARCINOGEN (STUDY DURATION: 68 WK), Route [Inhibitor]: ORAL, Species: FISH, Strain/Sex: RAINBOW TROUT, Target Tissue: Type of Lesion: LIVER: HEPATOCELLULAR CARCINOMA, Dose [Carcinogen]: 20 PPB IN DIET FOR 2 WK): 43/118 (36%), 20/117 (17%), 53%, p<0.05
- tumour outcome (control, treated, inhibition, significance) (Dose [Inhibitor]: 0, 500 PPM IN DIET BEGINNING 8 WK PRIOR TO CARCINOGEN AND CONTINUING FOR 6 WK POST CARCINOGEN (STUDY DURATION: 68 WK), Route [Inhibitor]: ORAL, Species: FISH, Strain/Sex: RAINBOW TROUT, Target Tissue: Type of Lesion: LIVER: HEPATOCELLULAR CARCINOMA, Dose [Carcinogen]: 20 PPB IN DIET FOR 2 WK): 43/118 (36%), 7/120 (6%), 84%, p<0.01
- outcome (Dose [Inhibitor]: 0.005% IN DIET BEGINNING 4 WK PRIOR TO CARCINOGEN DOSE AND CONTINUING FOR 4 ADDITIONAL WK CONCURRENTLY WITH CARCINOGEN D, Route [Inhibitor]: ORAL, Species: FISH, Strain/Sex: MT. SHASTA RAINBOW TROUT, Target Tissue: Type of Lesion: LIVER: CHOLANGIOCELLULAR CARCINOMA OR ADENOMA, Dose [Carcinogen]: 10 PPB IN DIET FOR 4 WK): 0/166, 1/177, 0%
- tumour outcome (control, treated, inhibition, significance) (Dose [Inhibitor]: 0.005% IN DIET BEGINNING 4 WK PRIOR TO CARCINOGEN DOSE AND CONTINUING FOR 4 ADDITIONAL WK CONCURRENTLY WITH CARCINOGEN D, Route [Inhibitor]: ORAL, Species: FISH, Strain/Sex: MT. SHASTA RAINBOW TROUT, Target Tissue: Type of Lesion: LIVER: HEPATOCELLULAR CARCINOMA OR MIXED CARCINOMA OR HEPATOCELLULAR ADENOMA, Dose [Carcinogen]: 10 PPB IN DIET FOR 4 WK): 39/166 (23%), 7/177 (4%), 83%, p<0.01
- tumour outcome (control, treated, inhibition, significance) (Dose [Inhibitor]: 0.005% IN DIET FOR 8 WK (STUDY DURATION: 1 YR), Route [Inhibitor]: ORAL, Species: FISH, Strain/Sex: MT. SHASTA RAINBOW TROUT, Target Tissue: Type of Lesion: LIVER: CHOLANGIOCELLULAR CARCINOMA OR ADENOMA, Dose [Carcinogen]: 0.5 PPM AQUEOUS SOLUTION FOR 30 MIN EXPOSURE OF EMBRYOS 21 D AFTER FERTILIZATION): 8/182 (4%), 7/175 (4%), 0%, not calculated
- outcome (Dose [Inhibitor]: 0.05% IN DIET BEGINNING 4 WK PRIOR TO CARCINOGEN DOSE AND CONTINUING FOR 4 ADDITIONAL WK CONCURRENTLY WITH CARCINOGEN DO, Route [Inhibitor]: ORAL, Species: FISH, Strain/Sex: MT. SHASTA RAINBOW TROUT, Target Tissue: Type of Lesion: LIVER: CHOLANGIOCELLULAR CARCINOMA OR ADENOMA, Dose [Carcinogen]: 10 PPB IN DIET FOR 4 WK): 0/166 (0%), 0/172 (0%)
- tumour outcome (control, treated, inhibition, significance) (Dose [Inhibitor]: 0.05% IN DIET BEGINNING 4 WK PRIOR TO CARCINOGEN DOSE AND CONTINUING FOR 4 ADDITIONAL WK CONCURRENTLY WITH CARCINOGEN DO, Route [Inhibitor]: ORAL, Species: FISH, Strain/Sex: MT. SHASTA RAINBOW TROUT, Target Tissue: Type of Lesion: LIVER: HEPATOCELLULAR CARCINOMA OR MIXED CARCINOMA OR HEPATOCELLULAR ADENOMA, Dose [Carcinogen]: 10 PPB IN DIET FOR 4 WK): 39/166 (23%), 1/172 (0.6%), 97%, p<0.01
